# In patent US5017568A, “Steriod 5-alpha-reductase inhibitors” (SmithKline Beecham Corporation, priority 1990, dated 1991):
# Entries after “also recorded” stand apart in the source; their conditions may differ. Read-outs that look alike come from different tables or passages of the source.
# Tests used:
# [1] = molecular target: T1, human prostatic steroid 5-α-reductase (Homo sapiens, UniProt P31213); assay: Inhibition of human prostatic steroid 5-α-reductase (conversion of [14C]-testosterone, prostatic particulates); type: biochemical; settings: for Ki: pH 5.0, 37° C., competitive versus testosterone assumed, Dixon analysis, read-out: Inhibition Constants of Human Prostatic Steroid 5-α-Reductase, Ki
# T1 construct: Prostatic particles were obtained by differential centrifugation; from tissue; host or cells: hyperplastic human prostate, particulate fraction (140,000 x g pellet)
# T1 sequence (P31213 1-254): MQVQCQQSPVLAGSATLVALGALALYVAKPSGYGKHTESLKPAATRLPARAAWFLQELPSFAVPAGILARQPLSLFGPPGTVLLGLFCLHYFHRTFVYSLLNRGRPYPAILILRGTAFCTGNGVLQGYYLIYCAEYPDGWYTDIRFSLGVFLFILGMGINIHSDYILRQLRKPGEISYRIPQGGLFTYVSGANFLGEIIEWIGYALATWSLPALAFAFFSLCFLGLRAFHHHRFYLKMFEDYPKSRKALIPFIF
# Description: Such diseases and conditions include acne vulgaris, seborrhea, female hirsutism, prostate diseases such as benign prostatic hypertrophy and prostatic adenocarcinoma and male pattern baldness. The potency of several compounds of the invention was tested for potency in inhibiting human steroid 5-α-reductase using tissue from hyperplastic human prostates. In determining potency in inhibiting the human enzyme, the following procedure was employed:
# Frozen human prostates were thawed and minced into small pieces (5 mm^3). The tissue was homogenized in 3 to 5 volumes of 20 mM potassium phosphate, pH 6.5, buffer containing 0.33 M sucrose, 1 mM dithiothreitol, and 50 μM NADPH with a Brinkmann Polytron (Sybron Corporation, Westbury, N.Y.). The solution was subjected to sonication for 3 to 5 minutes with a Sonifier Branson Sonic Power Co.) followed by hand homogenization in a glass-to-glass Dounce homogenizer (Kontes Glass Company, Vineland, N.J.).
# Prostatic particles were obtained by differential centrifugation at 600 or 1,000 x g for 20 minutes and 140,000 x g for 60 minutes at 4° C. The pellet obtained from the 140,000 x g centrifugation was washed with 5 to 10 tissue volumes of the buffer described above and recentrifuged at 140,000 x g. The resulting pellet was suspended in 20 mM potassium phosphate buffer, pH 6.5, containing 20% glycerol, 1 mM dithiothreitol, and 50 μM NADPH. The suspended particulate solution was stored at -80° C.
# A constant amount of [^14 C]-testosterone (52 to 55 mCi/mmol, New England Nuclear, Boston, MA) in ethanol and varying amounts of the potential inhibitor in ethanol were deposited in test tubes and concentrated to dryness in a SAVANT Speed Vac. To each tube was added buffer, 20 μl of 10 mM NADPH and an aliquot of prostatic particulate solution to a final volume of 1.0 ml of 50 mM sodium citrate, pH 5.0. After incubating the solution at 37° C. for 20 to 30 minutes the reaction was quenched by the addition of 4 ml ethyl acetate and 0.25 μmol each of testosterone, dihydrotestosterone, androstanediol, and androstanedione as carriers. The organic layer was removed to a second test tube and evaporated to dryness in a Speed Vac. The residue was dissolved in 20 to 30 μl chloroform, spotted on an individual lane of a 20 x 20 cm prechannelled silica gel TLC plate (Si 250F PA, Baker Chemical) and developed twice with acetone:chloroform (1:9). The radiochemical content in the bands of the substrate and the products was determined with a BIOSCAN Imaging Scanner (Bioscan, Inc., Washington, D.C.). The percent of recovered radiolabel converted to product was calculated, from which enzyme activity was determined. All incubations were conducted such that no more than 12% of the substrate (testosterone) was consumed.
# The experimentally obtained data was computer fitted to a linear function by plotting the reciprocal of the enzyme activity (1/velocity) against the variable inhibitor concentration (Dixon, M. (1953), Biochem. J., 55, 170). Assuming that the steroidal inhibitor is a competitive inhibitor against testosterone, a value for the inhibition constant (Ki) can be calculated from equation 1:
# Ki =(B/A)/[…]) Equation 1
# steroid 5-α-reductase [2] = settings: cited from earlier work; for mode of 5-α-reductase inhibition: in words
# steroid 5-α-reductase [3] = assay: In vivo inhibition of steroid 5-α-reductase: prostatic DHT (and testosterone) levels in rats; design: species or system rat
# Description: Certain compounds of the invention also were tested for their in vivo potency in inhibiting steroid 5-α-reductase activity. Male Charles River CD rats, 48 days old, weighing approximately 200 gm were administered 10 mg/kg of N,N-diisopropyl androst-3,5-diene-17β-carboxamide-3-carboxylic acid dissolved in propylene glycol and diluted in normal saline. Following compound administration the animals were sacrificed, the ventral prostates were excised, and DHT levels were measured by the following procedure.
# Prostate tissue was excised, trimmed, weighed, minced and washed with phosphate buffer. The tissue then was homogenized in phosphate buffer and extracted by addition of ethyl acetate and mixing on an orbital mixer for forty-five minutes. The ethyl acetate was evaporated, the residue was reconstituted in ethanol, and was centrifuge filtered using […] filter paper. The components then were separated using reverse-phase HPLC collecting the DHT fraction. The fraction was reduced to dryness and reconstituted in standard DHT assay buffer available from Amersham. DHT levels then were measured using standard techniques such as radioimmunoassay.
# Using procedures similar to those described above the in vivo effects of 17β-N-t-butylcarbox-amide-androst-3,5-diene-3-carboxylic acid also were studied. Rats received a single oral dose of vehicle or 5, 10, 20 or 50 mg/kg of this compound.
# ventral prostate = assay: Effect of repeated dosing on prostatic growth / ventral prostate weight in rats; type: in vivo, rat; settings: for ventral prostate weight, percent of control: rats, two weeks
# Description: N,N diisopropyl-androst-3,5 diene 17β-carboxamide-3-carboxylic acid also was tested for its effects on prostatic growth.
# seminal vesicle = assay: Effect of repeated dosing on seminal vesicle weight in rats; type: in vivo, rat; settings: rats, 1, 5, 10, 25 or 50 mg/kg twice daily, two weeks
# steroid-5-α-reductase = assay: In vitro steroid 5-α-reductase inhibition; type: biochemical; settings: in words
# [4] = Irreversible, read-out: 5-α-reductase inhibition constant (Table 1)
smiles,measurement,setting,value
C[C@H](CO)[C@H]1CC[C@H]2[C@@H]3CC[C@H]4C(F)=C(C(=O)O)CC[C@]4(C)[C@H]3CC[C@]12C,Ki,[1],2000 nM
CCOC(=O)C1=CC2=CC[C@H]3[C@@H]4CC[C@H](C(=O)N(C(C)C)C(C)C)[C@@]4(C)CC[C@@H]3[C@@]2(C)CC1,Ki,[1],4000 nM
CC(C)N(C(=O)[C@H]1CC[C@H]2[C@@H]3CC[C@H]4C(F)=C(C(=O)O)CC[C@]4(C)[C@H]3CC[C@]12C)C(C)C,Ki,[1],26 nM
CC(C)N(C(=O)[C@H]1CC[C@H]2[C@@H]3CC=C4C=C(C(=O)O)C=C[C@]4(C)[C@H]3CC[C@]12C)C(C)C,Ki,[1],50 nM
CC(C)N(C(=O)[C@H]1CC[C@H]2[C@@H]3CC(C(F)(F)F)=C4C=C(C(=O)O)CC[C@]4(C)[C@H]3CC[C@]12C)C(C)C,Ki,[1],900 nM
CC(C)(C)NC(=O)[C@H]1CC[C@H]2[C@@H]3CC[C@H]4C=C(C(=O)O)CC[C@]4(C)[C@H]3CC[C@]12C,Ki,[1],110 nM
C[C@]12CC[C@H]3[C@@H](CCC4=CC(=O)CC[C@@]43C)[C@@H]1CC[C@@H]2C(=O)O [(1)],Ki,"steroid 5-α-reductase [2]; Hsia and Voight 1973, read-out: K1",1100 nM
CC(=O)[C@H]1CC[C@H]2[C@@H]3CC=C=CC(=O)CCC(=O)[C@H]3CC[C@]12C [(2)],Ki,steroid 5-α-reductase [2]; [4],1000 nM
same,mode of 5-α-reductase inhibition,steroid 5-α-reductase [2],Irreversible; also recorded: affinity label for 5 -α-reductase
CC(CO)[C@H]1CC[C@H]2[C@@H]3CC[C@H]4C(=[N+]=[N-])C(=O)CC[C@]4(C)[C@H]3CC[C@]12C (some centres unmarked) [(3)],Ki,"steroid 5-α-reductase [2]; Irreversible, Blohm, et al., 1980, read-out: 5-α-reductase inhibition constant (Table 1)",35 nM
same,mode of 5-α-reductase inhibition,steroid 5-α-reductase [2],"Irreversible; also recorded: potent, time-dependent inhibitor"
CCN(CC)C(=O)[C@H]1CC[C@H]2[C@@H]3CC[C@H]4N(C)C(=O)CC[C@]4(C)[C@H]3CC[C@]12C [(4)],Ki,"steroid 5-α-reductase [2]; Liang, et al., 1983, read-out: 5-α-reductase inhibition constant (Table 1)",5 nM
C=C1C[C@@H]2[C@H](CC[C@@]3(C)[C@H]2CC[C@]3(OC(C)=O)C(C)=O)[C@@]2(C)CCC(=O)C=C12 [(5)],Ki,steroid 5-α-reductase [2]; [4],1250 nM
same,mode of 5-α-reductase inhibition,steroid 5-α-reductase [2],Irreversible; also recorded: time-dependent inactivator
"CC(C)N(C(=O)[C@H]1CC[C@H]2[C@@H]3CC=C4C=C(C(=O)O)CC[C@]4(C)[C@H]3CC[C@]12C)C(C)C [N,N-Diisopropyl-androst-3,5-diene-17β-carboxamide-3-carboxylic acid]",duration of decreased DHT levels,"steroid 5-α-reductase [3]; male CD rats, 10 mg/kg",greater than eight
same,decrease of prostatic DHT levels relative to vehicle-treated controls,"steroid 5-α-reductase [3]; male CD rats, 10 mg/kg, four hours after administration",forty
same,return of prostatic DHT levels to control,"steroid 5-α-reductase [3]; male CD rats, 10 mg/kg, twenty four hours after treatment",had returned to control levels
same,prostatic growth,"ventral prostate; immature rats, 0.5 to 50 mg/kg twice daily oral, fourteen days",dose dependent decrease in prostatic growth
same,decrease of prostate weight versus controls,"ventral prostate; immature rats, maximum dose group (50 mg/kg), twice daily oral, fourteen days",forty to fifty
"CC(C)(C)NC(=O)[C@H]1CC[C@H]2[C@@H]3CC=C4C=C(C(=O)O)CC[C@]4(C)[C@H]3CC[C@]12C [N-t-Butyl Androst-3,5-diene-17β-carboxamide-3-Carboxylic Acid]","prostate dihydrotestosterone levels, percent of controls","steroid 5-α-reductase [3]; rats, 10 mg/kg, all time points from two to eighteen hours",approximately sixty
same,prostate testosterone levels,"steroid 5-α-reductase [3]; rats, 10 mg/kg, over twenty four hours",viable without consistent trends
same,return of dihydrotestosterone levels to control values,"steroid 5-α-reductase [3]; rats, 10 mg/kg, twenty-four hours post treatment",returned to control values
same,prostate testosterone levels,"steroid 5-α-reductase [3]; rats, single oral dose 5, 10, 20 or 50 mg/kg",remained unaffected
same,"prostate dihydrotestosterone levels, percent of controls","steroid 5-α-reductase [3]; rats, single oral dose 5, 10, 20 or 50 mg/kg (all doses)",approximately fifty
same,seminal vesicle weights,seminal vesicle,significantly reduced at all treatment levels
same,"ventral prostate weight, percent of control",ventral prostate; 5 mg/kg twice daily,ninety
same,"ventral prostate weight, percent of control",ventral prostate; 10 and 50 mg/kg twice daily,sixty five
CC(C)(C)NC(=O)[C@H]1CC[C@H]2[C@@H]3CC=C4C=C(C(=O)O)CC[C@]4(C)[C@H]3CC[C@]12C [drawing 35],Ki,[1],30 nM
"COC(=O)C1=CC2=CC[C@H]3[C@@H]4CC[C@H](C(=O)N(C(C)C)C(C)C)[C@@]4(C)CC[C@@H]3[C@@]2(C)CC1 [methyl ester of the above compound, 3-Carbomethoxy-androst-3,5-diene-17β-N,N -diisopropylcarboxamide]",decrease of prostatic DHT levels relative to vehicle-treated controls,"steroid 5-α-reductase [3]; rats, single 10 mg/kg dose, after six hours",forty eight
same,steroid 5-α-reductase inhibition in vivo,"steroid 5-α-reductase [3]; rats, single 10 mg/kg dose, in words",significant enzyme inhibition
same,steroid-5-α-reductase inhibition in vitro,steroid-5-α-reductase,does not inhibit steroid-5-α-reductase in vitro
"C[C@]12CC[C@H]3[C@@H](CCC4=CC(=O)CC[C@@]43C)[C@@H]1CC[C@@H]2O [testosterone, reference compound]",Km,"[1]; determined in a separate experiment, read-out: Km of the substrate (testosterone)",4.5 µM
